Laboratory results taken from patent US20160002204A1 (Board of Regents, The University of Texas System, priority 2014, published 2016).
pEC50, pIC50: −log10 of the molar value.

Tests used:
[1] = target: T1, GLS1 (purified recombinant human GAC) (Homo sapiens, UniProt O94925); experiment: GLS1 enzymatic activity assay (dual-coupled, Amplex UltraRed/resorufin); assay type: biochemical
T1 sequence (O94925 55-598 isoform O94925-3 limits assumed): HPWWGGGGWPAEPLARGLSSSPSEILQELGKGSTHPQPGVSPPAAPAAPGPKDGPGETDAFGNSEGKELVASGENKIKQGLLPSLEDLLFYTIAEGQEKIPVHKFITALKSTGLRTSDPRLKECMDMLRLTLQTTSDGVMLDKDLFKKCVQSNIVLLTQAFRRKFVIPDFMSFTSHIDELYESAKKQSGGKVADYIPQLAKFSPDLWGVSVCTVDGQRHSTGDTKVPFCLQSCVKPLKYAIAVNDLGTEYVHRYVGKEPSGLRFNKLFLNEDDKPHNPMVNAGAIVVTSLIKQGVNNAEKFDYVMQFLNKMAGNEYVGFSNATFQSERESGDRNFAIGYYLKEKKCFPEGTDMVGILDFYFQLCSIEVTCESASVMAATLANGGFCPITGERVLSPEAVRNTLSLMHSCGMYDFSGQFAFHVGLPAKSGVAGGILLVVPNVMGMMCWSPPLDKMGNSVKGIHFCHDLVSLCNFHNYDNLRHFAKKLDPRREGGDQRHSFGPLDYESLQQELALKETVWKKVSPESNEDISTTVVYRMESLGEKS
How it was run: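 In this coupled fluorometric format, phosphate-activated GAC (2 nM, 50 mM phosphate) is pre-exposed to compound for 10 min before 1 mM glutamine addition. Product is tracked as resorufin (530/590 nm) over time or at 20 min, and potency is derived by logistic fitting.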

A549 cells = experiment: A549 proliferation (viability) assay, Cell Titer Fluor, 72 hours; assay type: cell-based; conditions: Homo sapiens
How it was run: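 Fluorescence read-out (Cell Titer Fluor, 30 min at 37 °C after reagent) after 72 h compound exposure of A549 cells; EC50 by four-parameter logistic curve fit. Cells: 1000/well, RPMI 1640 + 10% dialyzed FBS, 0.5% DMSO final.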

Row | Compound | pIC50 [1] | pEC50 (A549 cells)
1 | O=C(Nc1ccn(CCC(F)Cn2cc(C(=O)NCc3cc(OC(F)(F)F)ccc3F)nn2)c(=O)c1F)C(=O)N1CCC[C@@H](C(F)(F)F)C1 (stereo partly drawn) [Example 434, 1-[2-fluoro-4-(3-fluoro-2-oxo-4-{2-oxo-2-[(3R)-3-(trifluoromethyl)piperidin-1-yl]acetamido)-1,2-dihydropyridin-1-yl)butyl]-N-{[2-fluoro-5-(trifluoromethoxy)phenyl]methyl}-1H-1,2,3-triazole-4-carboxamide] | > 7.00 | > 7.00
2 | O=C(Cc1ccccc1)Nc1ccn(CCCCc2nnc(C(=O)NCc3cccc(OC(F)(F)F)c3)s2)c(=O)c1 [Example 438, 5-{4-[2-oxo-4-(2-phenylacetamido)-1,2-dihydropyridin-1-yl]butyl}-N-{[3-(trifluoromethoxy)phenyl]methyl}-1,3,4-thiadiazole-2-carboxamide] | > 7.00 | > 7.00
3 | O=C(Cc1cccc(OC(F)(F)F)c1)Nc1ccn(CCCCc2nnc(C(=O)NCc3cccc(OC(F)(F)F)c3)s2)c(=O)c1 [Example 439, 5-[4-(2-oxo-4-{2-[3-(trifluoromethoxy)phenyl]acetamido}-1,2-dihydropyridin-1-yl)butyl]-N-{[3-(trifluoromethoxy)phenyl]methyl}-1,3,4-thiadiazole-2-carboxamide] | > 7.00 | > 7.00
4 | O=C(CC1CCCCC1)Nc1ccn(CCCCc2nnc(C(=O)NCc3cccc(OC(F)(F)F)c3)s2)c(=O)c1 [Example 440, 5-{4-[4-(2-cyclohexylacetamido)-2-oxo-1,2-dihydropyridin-1-yl]butyl}-N-{[3-(trifluoromethoxy)phenyl]methyl]-1,3,4-thiadiazole-2-carboxamide] | > 7.00 | > 7.00
5 | Cc1ccc(CNC(=O)c2nnc(CCCCn3ccc(NC(=O)Cc4ccccc4)cc3=O)s2)cn1 [Example 441, N-[(6-methylpyridin-3-yl)methyl]-5-{4-[2-oxo-4-(2-phenylacetamido)-1,2-dihydropyridin-1-yl]butyl}-1,3,4-thiadiazole-2-carboxamide] | > 7.00 | 5.30 to 6.30
6 | Cc1ccc(CNC(=O)c2nnc(CCCCn3ccc(NC(=O)Cc4cccc(OC(F)(F)F)c4)cc3=O)s2)cn1 [Example 442, N-[(6-methylpyridin-3-yl)methyl]-5-[4-(2-oxo-4-{2-[3-(trifluoromethoxy)phenyl]acetamido}-1,2-dihydropyridin-1-yl)butyl]-1,3,4-thiadiazole-2-carboxamide] | > 7.00 | > 7.00
7 | Cc1ccc(CNC(=O)c2nnc(CCCCn3ccc(NC(=O)CC4CCCCC4)cc3=O)s2)cn1 [Example 443, 5-{4-[4-(2-cyclohexylacetamido)-2-oxo-1,2-dihydropyridin-1-yl]butyl}-N-[(6-methylpyridin-3-yl)methyl]-1,3,4-thiadiazole-2-carboxamide] | > 7.00 | > 7.00
8 | O=C(Cc1ccccc1)Nc1ccn(CCCCc2nnc(C(=O)NCc3ccccn3)s2)c(=O)c1 [Example 445, 5-{4-[2-oxo-4-(2-phenylacetamido)-1,2-dihydropyridin-1-yl]butyl}-N-(pyridin-2-ylmethyl)-1,3,4-thiadiazole-2-carboxamide] | 6.30 to 7.00 | 5.30 to 6.30
9 | O=C(Cc1cccc(OC(F)(F)F)c1)Nc1ccn(CCCCc2nnc(C(=O)NCc3ccccn3)s2)c(=O)c1 [Example 446, 5-[4-(2-oxo-4-{2-[3-(trifluoromethoxy)phenyl]acetamido}-1,2-dihydropyridin-1-yl)butyl]-N-(pyridin-2-ylmethyl)-1,3,4-thiadiazole-2-carboxamide] | > 7.00 | 6.30 to 7.00
10 | O=C(CC1CCCCC1)Nc1ccn(CCCCc2nnc(C(=O)NCc3ccccn3)s2)c(=O)c1 [Example 447, 5-{4-[4-(2-cyclohexylacetamido)-2-oxo-1,2-dihydropyridin-1-yl]butyl}-N-(pyridin-2-ylmethyl)-1,3,4-thiadiazole-2-carboxamide] | > 7.00 | > 7.00
11 | COCCNC(=O)c1nnc(CCCCn2ccc(NC(=O)Cc3cccc(OC(F)(F)F)c3)cc2=O)s1 [Example 450, N-(2-methoxyethyl)-5-[4-(2-oxo-4-{2-[3-(trifluoro-methoxy)phenyl]acetamido}-1,2-dihydropyridin-1-yl)butyl]-1,3,4-thiadiazole-2-carboxamide] | 6.30 to 7.00 | 5.30 to 6.30
12 | COCCNC(=O)c1nnc(CCCCn2ccc(NC(=O)CC3CCCCC3)cc2=O)s1 [Example 451, 5-{4-[4-(2-cyclohexylacetamido)-2-oxo-1,2-dihydropyridin-1-yl]butyl)-N-(2-methoxyethyl)-1,3,4-thiadiazole-2-carboxamide] | > 7.00 | 6.30 to 7.00
13 | O=C(Cc1ccccc1)Nc1ccn(CCCCc2nnc(C(=O)NCc3ncccc3F)s2)c(=O)c1 [Example 453, N-[(3-fluoropyridin-2-yl)methyl]-5-{4-[2-oxo-4-(2-phenylacetamido)-1,2-dihydropyridin-1-yl]butyl}-1,3,4-thiadiazole-2-carboxamide] | 6.30 to 7.00 | 5.30 to 6.30
14 | O=C(Cc1cccc(OC(F)(F)F)c1)Nc1ccn(CCCCc2nnc(C(=O)NCc3ncccc3F)s2)c(=O)c1 [Example 454, N-[(3-fluoropyridin-2-yl)methyl]-5-[4-(2-oxo-4-{2-[3-(trifluoromethoxy)phenyl]acetamido}-1,2-dihydropyridin-1-yl)butyl]-1,3,4-thiadiazole-2-carboxamide] | > 7.00 | 6.30 to 7.00
15 | O=C(CC1CCCCC1)Nc1ccn(CCCCc2nnc(C(=O)NCc3ncccc3F)s2)c(=O)c1 [Example 455, 5-{4-[4-(2-cyclohexylacetamido)-2-oxo-1,2-dihydropyridin-1-yl]butyl}-N-[(3-fluoropyridin-2-yl)methyl]-1,3,4-thiadiazole-2-carboxamide] | > 7.00 | > 7.00
16 | O=C(Cc1ccccn1)Nc1ccn(CCCCc2nnc(C(=O)NCc3cccc(OC(F)(F)F)c3)s2)c(=O)c1 [Example 456, 5-(4-{2-oxo-4-[2-(pyridin-2-yl)acetamido]-1,2-dihydropyridin-1-yl}butyl)-N-{[3-(trifluoromethoxy)phenyl]methyl}-1,3,4-thiadiazole-2-carboxamide] | > 7.00 | 6.30 to 7.00
17 | O=C(Cc1ccccc1)Nc1ccn(CCCCc2nnc(C(=O)NCc3cc(OC(F)(F)F)ccc3F)s2)c(=O)c1 [Example 458, N-{[2-fluoro-5-(trifluoromethoxy)phenyl]methyl}-5-{4-[2-oxo-4-(2-phenylacetamido)-1,2-dihydropyridin-1-yl]butyl}-1,3,4-thiadiazole-2-carboxamide] | > 7.00 | > 7.00
18 | O=C(Cc1cccc(OC(F)(F)F)c1)Nc1ccn(CCCCc2nnc(C(=O)NCc3cc(OC(F)(F)F)ccc3F)s2)c(=O)c1 [Example 459, N-{[2-fluoro-5-(trifluoromethoxy)phenyl]methyl}-5-[4-(2-oxo-4-{2-[3-(trifluoromethoxy)phenyl]acetamido}-1,2-dihydropyridin-1-yl)butyl]-1,3,4-thiadiazole-2-carboxamide] | > 7.00 | > 7.00
19 | O=C(CC1CCCCC1)Nc1ccn(CCCCc2nnc(C(=O)NCc3cc(OC(F)(F)F)ccc3F)s2)c(=O)c1 [Example 460, 5-{4-[4-(2-cyclohexylacetamido)-2-oxo-1,2-dihydropyridin-1-yl]butyl}-N-{[2-fluoro-5-(trifluoromethoxy)phenyl]methyl}-1,3,4-thiadiazole-2-carboxamide] | > 7.00 | > 7.00
